{
  "source": "patent US20170299609A1",
  "about": "“TREATMENT OF AMYOTROPHIC LATERAL SCLEROSIS WITH SK CHANNEL ACTIVATORS” (Wright State University, priority 2016, published 2017)",
  "assay_type_in_all_cases": "in vivo",
  "key": {"[1]": {"test_system": "G93A high expressor line of transgenic male ALS mice with a B6SJL background", "test": "Survival of transgenic ALS mice, CyPPA given P5 to P20 (Example 1)", "conditions": "CyPPA 0.014 μg/kg daily IP for 16 days (P5-P20)", "experimental": "(§1) Thus, the effect of SK channel activators on survival and motor function of the G93A high expressor line of transgenic male ALS mice with a B6SJL background (hereinafter, “transgenic ALS mice”) was characterized. The transgenic ALS mice carry a mutation of the superoxide dismutase 1 gene; as a result, the transgenic ALS mice develop a neurodegenerative disease which closely mimics ALS in humans. In this experiment, CyPPA (n=13) or vehicle solution (i.e., saline+11% DMSO, n=12) was administered early to the transgenic ALS mice for sixteen (16) days (between ages P5 and P20) via daily intraperitoneal (i.e., IP) injection. CyPPA was administered at a dose of 0.014 μg/kg in both experiments.\n(§2) In this experiment, the effect of CyPPA on survival of the transgenic ALS mice was assessed by determining when the transgenic ALS mice met end point criteria, i.e., full paralysis of both hind limbs and failing to right themselves 30 seconds after being turned on their backs. Additionally, the effect of CyPPA on motor function of the transgenic ALS mice was assessed by daily measuring from the age of P85 to the end stage using the rotarod machine. More specifically, the transgenic ALS mice were placed on a rotating rod for four minutes at a speed of 5 rotations per minute (i.e., RPM). The speed was increased to 25 RPM and the transgenic ALS mice were deemed unable to complete the task if they could complete only five percent (i.e., 12 seconds) of the task (i.e., the end stage). Rotarod performance was assessed to detect onset of symptoms associated with the neurodegenerative disease mimicking ALS in humans in the transgenic ALS mice and/or to monitor disease progression in the transgenic ALS mice, such as, e.g., via characterizing the rate of loss of motor function."}, "[2]": {"test_system": "G93A high expressor line of transgenic male ALS mice with a B6SJL background", "test": "Rotarod motor function of transgenic ALS mice, CyPPA given P5 to P20 (Example 1)", "conditions": "CyPPA 0.014 μg/kg daily IP for 16 days (P5-P20)", "experimental": "as §1, §2"}, "[3]": {"test_system": "G93A high expressor line of transgenic male ALS mice with a B6SJL background", "test": "Rotarod motor function of transgenic ALS mice, CyPPA given at ALS onset P90 to P96 (Example 2)", "conditions": "CyPPA 0.014 μg/kg daily IP for 7 days (P90-P96); 92 to 105 and 112 to 119 days of age; FIG. 4", "experimental": "Because symptoms of ALS in the transgenic ALS mice emerge around P90, the effect of administering CyPPA at P90 was characterized. Without being bound by the theory, it is believed that administration of CyPPA in the transgenic ALS mice at ALS onset would correlate to beginning treatment in humans upon diagnosis of ALS. In this experiment, CyPPA (n=14) or vehicle solution (i.e., saline+11% DMSO; n=14) was administered to the transgenic ALS mice for seven (7) days (between ages P90 and P96) via daily IP injection. CyPPA was administered at a dose of 0.014 μg/kg.\nas §2, with “stage).” for “stage). Rotarod performance was assessed to detect onset of symptoms associated with the neurodegenerative disease mimicking ALS in humans in the transgenic ALS mice and/or to monitor disease progression in the transgenic ALS mice, such as, e.g., via characterizing the rate of loss of motor function.”"}},
  "data": [
    {"smiles": "Cc1cc(NC2CCCCC2)nc(-n2nc(C)cc2C)n1", "note": "[CyPPA]", "values": [
      {"measurement": "longer survival relative to control injected with vehicle solution", "setting": "[1]", "value": 10, "unit": "days"},
      {"measurement": "increase in mean survival over control injected with vehicle solution", "setting": "[1]; p=0.0063", "value": "~8", "unit": "%"},
      {"measurement": "mean survival", "setting": "[1]; vehicle 125.76 days, p=0.0063", "value": 135.72, "unit": "days"},
      {"measurement": "time able to stay on the rotarod relative to vehicle control", "setting": "[2]; 122 to 126 days of age, FIG. 3", "value": "significantly longer"},
      {"measurement": "able to complete the rotarod task longer than vehicle-injected mice", "setting": "[2]; FIG. 2", "value": 5, "unit": "days"},
      {"measurement": "reduction of rate of decline in motor function relative to vehicle control", "setting": "[2]; FIG. 3, p=0.0017", "value": "~40", "unit": "%"},
      {"measurement": "slope of decline in motor function (rotarod percent complete vs days of age)", "setting": "[2]; FIG. 3 line A, vehicle slope 0.0349", "value": 0.0211},
      {"measurement": "average motor function (rotarod completion ratio) versus vehicle control", "setting": "[3]", "value": "significantly better"}
    ]}
  ]
}
